Measurements published in PubChem BioAssay AID200 (DTP/NCI, 2004).
“And” between values parts separate entries of the source, which are not always exact repeats. Equal values may be shown once. Inconclusive results and toxic doses are left out.

System: B6C3F1 mice, B16 melanoma ip, median survival T/C
Assay: NCI In Vivo Anticancer Drug Screen. Data for tumor model B16 Melanoma (intraperitoneal) in B6C3F1 mice
Details: endpoint: median survival time, higher = longer survival
Outline: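 Tumor-bearing mice received test compound; a separate group got vehicle only. Survival was then compared, with results reported as treated over control.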

[1] = dose: 12.5 mg/kg/injection, schedule: Q01DX009 (ip), vehicle: Klucel (hydroxypropylcellulose) (HPC)
[2] = dose: 25.0 mg/kg/injection, schedule: Q01DX009 (ip), vehicle: Klucel (hydroxypropylcellulose) (HPC)
[3] = dose: 50.0 mg/kg/injection, schedule: Q01DX009 (ip), vehicle: Klucel (hydroxypropylcellulose) (HPC)
[4] = dose: 100.0 mg/kg/injection, schedule: Q01DX009 (ip), vehicle: Klucel (hydroxypropylcellulose) (HPC)
[5] = dose: 12.5 mg/kg/injection, schedule: Q01DX009 (ip), vehicle: saline
[6] = dose: 25.0 mg/kg/injection, schedule: Q01DX009 (ip), vehicle: saline
[7] = dose: 50.0 mg/kg/injection, schedule: Q01DX009 (ip), vehicle: saline
[8] = dose: 100.0 mg/kg/injection, schedule: Q01DX009 (ip), vehicle: saline
[9] = dose: 200.0 mg/kg/injection, schedule: Q01DX009 (ip), vehicle: saline
[10] = dose: 400.0 mg/kg/injection, schedule: Q01DX009 (ip), vehicle: saline
[11] = dose: 6.25 mg/kg/injection, schedule: Q01DX009 (ip), vehicle: saline with Tween-80
[12] = dose: 12.5 mg/kg/injection, schedule: Q01DX009 (ip), vehicle: saline with Tween-80
[13] = dose: 25.0 mg/kg/injection, schedule: Q01DX009 (ip), vehicle: saline with Tween-80
[14] = dose: 50.0 mg/kg/injection, schedule: Q01DX009 (ip), vehicle: distilled water + Tween-80
[15] = dose: 200.0 mg/kg/injection, schedule: Q01DX009 (ip), vehicle: distilled water + Tween-80

## O=P(O)(NCCCl)NCCCl
dose: 25.0 mg/kg/injection, schedule: Q01DX001 (ip), vehicle: saline with Tween-80
  T/C: 114 % of control and 119 % of control
dose: 50.0 mg/kg/injection, schedule: Q01DX001 (ip), vehicle: saline with Tween-80
  T/C: 115 % of control
dose: 100.0 mg/kg/injection, schedule: Q01DX001 (ip), vehicle: saline with Tween-80
  T/C: 159 % of control and 161 % of control
dose: 200.0 mg/kg/injection, schedule: Q01DX001 (ip), vehicle: saline with Tween-80
  T/C: 168 % of control and 182 % of control

## C=C[Si]12OCCN(CCO1)CCO2
[1]
  T/C: 112 % of control and 96 % of control
[2]
  T/C: 95 % of control and 99 % of control
[3]
  T/C: 101 % of control
[4]
  T/C: 111 % of control and 95 % of control
dose: 200.0 mg/kg/injection, schedule: Q01DX009 (ip), vehicle: Klucel (hydroxypropylcellulose) (HPC)
  T/C: 93 % of control and 104 % of control

## CC(O)CCC(=O)c1ccoc1 (centres undefined)
dose: 0.62 mg/kg/injection, schedule: Q03HX027 (ip), vehicle: saline
  T/C: 97 % of control
dose: 1.25 mg/kg/injection, schedule: Q03HX027 (ip), vehicle: saline
  T/C: 113 % of control
dose: 2.5 mg/kg/injection, schedule: Q03HX027 (ip), vehicle: saline
  T/C: 105 % of control
dose: 5.0 mg/kg/injection, schedule: Q01DX009 (ip), vehicle: saline
  T/C: 105 % of control
dose: 5.0 mg/kg/injection, schedule: Q03HX027 (ip), vehicle: saline
  T/C: 114 % of control
dose: 10.0 mg/kg/injection, schedule: Q01DX009 (ip), vehicle: saline
  T/C: 93 % of control
dose: 10.0 mg/kg/injection, schedule: Q03HX027 (ip), vehicle: saline
  T/C: 105 % of control
dose: 20.0 mg/kg/injection, schedule: Q01DX009 (ip), vehicle: saline
  T/C: 98 % of control

## CCC(=O)[O][Bi]([c]1ccccc1)[c]1ccccc1
[2]
  T/C: 92 % of control

## c1ccc(CN2COc3c(ccc4c3OCN(Cc3ccccc3)C4)C2)cc1
[2]
  T/C: 111 % of control
[3]
  T/C: 96 % of control
[4]
  T/C: 95 % of control

## OCC1(CO)COC2(CCCCC2)N1
dose: 6.25 mg/kg/injection, schedule: Q01DX009 (ip), vehicle: saline
  T/C: 95 % of control
[5]
  T/C: 119 % of control and 96 % of control and 103 % of control
[6]
  T/C: 114 % of control and 102 % of control and 104 % of control
[7]
  T/C: 114 % of control and 96 % of control and 104 % of control
[8]
  T/C: 112 % of control and 94 % of control and 104 % of control
[9]
  T/C: 111 % of control and 99 % of control
[10]
  T/C: 109 % of control and 93 % of control

## CCC(C)C(O)C(C)C(=O)C(C)/C=C(\C)CC(C)C1OC(=O)C1CC (centres undefined)
dose: 0.25 mg/kg/injection, schedule: Q01DX009 (ip), vehicle: saline + alcohol
  T/C: 104 % of control
dose: 0.5 mg/kg/injection, schedule: Q01DX009 (ip), vehicle: saline + alcohol
  T/C: 98 % of control and 104 % of control
dose: 1.0 mg/kg/injection, schedule: Q01DX009 (ip), vehicle: saline + alcohol
  T/C: 109 % of control and 100 % of control
dose: 2.0 mg/kg/injection, schedule: Q01DX009 (ip), vehicle: saline + alcohol
  T/C: 98 % of control and 103 % of control

## CC[C@@H](C)[C@H]([C@H](CC(=O)N1CCC[C@@H]1[C@@H](OC)[C@H](C)C(=O)N[C@H](Cc1ccccc1)c1nccs1)OC)N(C)C(=O)[C@H](NC(=O)[C@@H](C(C)C)N(C)C)C(C)C
dose: 2.4 micrograms/kg/injection, schedule: Q01DX009 (ip), vehicle: saline + alcohol
  T/C: 171 % of control
dose: 4.0 micrograms/kg/injection, schedule: Q01DX009 (ip), vehicle: saline + alcohol
  T/C: 205 % of control
dose: 6.67 micrograms/kg/injection, schedule: Q01DX009 (ip), vehicle: saline + alcohol
  T/C: 182 % of control
dose: 11.11 micrograms/kg/injection, schedule: Q01DX009 (ip), vehicle: saline + alcohol
  T/C: 238 % of control

## NC(CCC(=O)NC(CS)C(=O)NCC(=O)O)C(=O)O (centres undefined)
[5]
  T/C: 94 % of control
[6]
  T/C: 113 % of control and 86 % of control and 101 % of control
[10]
  T/C: 91 % of control and 104 % of control and 107 % of control

## O=C1c2ccc(Br)cc2-c2cc(Br)ccc21
[11]
  T/C: 98 % of control
[12]
  T/C: 98 % of control
[13]
  T/C: 93 % of control

## CC(=O)OC1=NC(C)c2c1cc(OC(C)=O)[nH]c2=O (centres undefined)
dose: 6.25 mg/kg/injection, schedule: Q01DX009 (ip), vehicle: Klucel (hydroxypropylcellulose) (HPC)
  T/C: 116 % of control and 105 % of control
[1]
  T/C: 110 % of control and 98 % of control
[2]
  T/C: 113 % of control and 100 % of control
[3]
  T/C: 90 % of control and 101 % of control
[4]
  T/C: 88 % of control

## CCc1nc(N)nc(N)c1-c1ccc(Cl)c(Cl)c1.[Cl][Pd][Cl]
dose: 3.12 mg/kg/injection, schedule: Q01DX009 (ip), vehicle: saline
  T/C: 114 % of control

## CC1(CO)C(O)CCC2(C)C1CCC1CC3CC12CCC3(O)CO (centres undefined)
dose: 10.0 mg/kg/injection, schedule: Q03HX027 (ip), vehicle: saline with Tween-80
  T/C: 118 % of control
[12]
  T/C: 116 % of control and 117 % of control
[13]
  T/C: 119 % of control and 122 % of control
dose: 30.0 mg/kg/injection, schedule: Q01DX005 (iv), vehicle: Klucel (hydroxypropylcellulose) (HPC)
  T/C: 103 % of control
dose: 40.0 mg/kg/injection, schedule: Q03HX027 (ip), vehicle: saline with Tween-80
  T/C: 187 % of control and 202 % of control
[14]
  T/C: 179 % of control
dose: 50.0 mg/kg/injection, schedule: Q01DX009 (ip), vehicle: saline with Tween-80
  T/C: 159 % of control
[7]
  T/C: 109 % of control
dose: 60.0 mg/kg/injection, schedule: Q01DX005 (iv), vehicle: Klucel (hydroxypropylcellulose) (HPC)
  T/C: 95 % of control
dose: 60.0 mg/kg/injection, schedule: Q01DX005 (oral), vehicle: Klucel (hydroxypropylcellulose) (HPC)
  T/C: 106 % of control
dose: 75.0 mg/kg/injection, schedule: Q01DX009 (ip), vehicle: saline
  T/C: 113 % of control
dose: 80.0 mg/kg/injection, schedule: Q03HX027 (ip), vehicle: saline with Tween-80
  T/C: 235 % of control
dose: 100.0 mg/kg/injection, schedule: Q01DX009 (ip), vehicle: distilled water + Tween-80
  T/C: 166 % of control
dose: 100.0 mg/kg/injection, schedule: Q01DX009 (ip), vehicle: saline with Tween-80
  T/C: 162 % of control and 173 % of control and 187 % of control
[8]
  T/C: 119 % of control
dose: 120.0 mg/kg/injection, schedule: Q01DX005 (ip), vehicle: Klucel (hydroxypropylcellulose) (HPC)
  T/C: 150 % of control
dose: 120.0 mg/kg/injection, schedule: Q01DX005 (iv), vehicle: Klucel (hydroxypropylcellulose) (HPC)
  T/C: 104 % of control
dose: 120.0 mg/kg/injection, schedule: Q01DX005 (oral), vehicle: Klucel (hydroxypropylcellulose) (HPC)
  T/C: 99 % of control
dose: 150.0 mg/kg/injection, schedule: Q01DX009 (ip), vehicle: saline
  T/C: 161 % of control
[15]
  T/C: 201 % of control
dose: 200.0 mg/kg/injection, schedule: Q01DX009 (ip), vehicle: saline with Tween-80
  T/C: 236 % of control
dose: 240.0 mg/kg/injection, schedule: Q01DX005 (ip), vehicle: Klucel (hydroxypropylcellulose) (HPC)
  T/C: 184 % of control
dose: 240.0 mg/kg/injection, schedule: Q01DX005 (oral), vehicle: Klucel (hydroxypropylcellulose) (HPC)
  T/C: 104 % of control
dose: 480.0 mg/kg/injection, schedule: Q01DX005 (oral), vehicle: Klucel (hydroxypropylcellulose) (HPC)
  T/C: 100 % of control

## O=C1c2ccccc2CCC1Cl (centres undefined)
dose: 1.5 mg/kg/injection, schedule: Q01DX009 (ip), vehicle: DMSO
  T/C: 87 % of control
dose: 3.0 mg/kg/injection, schedule: Q01DX009 (ip), vehicle: DMSO
  T/C: 86 % of control and 87 % of control and 88 % of control
dose: 12.0 mg/kg/injection, schedule: Q01DX009 (ip), vehicle: DMSO
  T/C: 89 % of control
dose: 1.2 micrograms/kg/injection, schedule: Q01DX009 (ip), vehicle: DMSO
  T/C: 91 % of control
dose: 2.5 micrograms/kg/injection, schedule: Q01DX009 (ip), vehicle: DMSO
  T/C: 86 % of control
dose: 5.0 micrograms/kg/injection, schedule: Q01DX009 (ip), vehicle: DMSO
  T/C: 87 % of control
dose: 10.0 micrograms/kg/injection, schedule: Q01DX009 (ip), vehicle: DMSO
  T/C: 88 % of control

## O=C(Nc1ccc([N+](=O)[O-])cc1)Nc1nncs1
dose: 25.0 mg/kg/injection, schedule: Q01DX009 (ip), vehicle: distilled water + Tween-80
  T/C: 122 % of control and 103 % of control
[14]
  T/C: 112 % of control and 113 % of control
[15]
  T/C: 120 % of control

## NCCc1ccc(O)cc1
[7]
  T/C: 96 % of control
[8]
  T/C: 96 % of control
[9]
  T/C: 96 % of control
[10]
  T/C: 104 % of control

## CCC1=C2C(=O)c3ccccc3C2=C(C)S(=O)(=O)O1
dose: 1.56 mg/kg/injection, schedule: Q01DX009 (ip), vehicle: saline with Tween-80
  T/C: 98 % of control
dose: 3.12 mg/kg/injection, schedule: Q01DX009 (ip), vehicle: saline with Tween-80
  T/C: 98 % of control
[11]
  T/C: 91 % of control and 93 % of control
